This passage reports IC50 results from patent US8846704B2, “Thiopyrimidine-based compounds and uses thereof” (YM Biosciences Austraila Pty Ltd, priority 2007, dated 2014).

Structures are written as SMILES. pIC50: −log10 of the molar value.

This assay concerns the target T1, human JAK3 (Homo sapiens, UniProt P52333).
T1 construct: The kinase domain of human JAK3 was amplified; GST (N); made in house; host or cells: Sf9 insect cells (baculovirus)
The experiment in a line: Alphascreen tyrosine kinase enzyme assay, JAK3 kinase domain. The format is biochemical. The following applies: read-out: JAK3 IC50_nM. The gist of the method:
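GST-affinity-purified human JAK3 kinase domain (baculovirus/Sf9) was pre-incubated 20 min with compound ([…]) in HEPES pH 7.5 buffer with MgCl2, vanadate and Tween 20. Biotinylated peptide substrate ([…]) and ATP were then added; phosphotyrosine was detected by AlphaScreen PY100 acceptor and streptavidin donor beads after 2–3 h.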

T1 sequence (P52333 822-1111 limits assumed): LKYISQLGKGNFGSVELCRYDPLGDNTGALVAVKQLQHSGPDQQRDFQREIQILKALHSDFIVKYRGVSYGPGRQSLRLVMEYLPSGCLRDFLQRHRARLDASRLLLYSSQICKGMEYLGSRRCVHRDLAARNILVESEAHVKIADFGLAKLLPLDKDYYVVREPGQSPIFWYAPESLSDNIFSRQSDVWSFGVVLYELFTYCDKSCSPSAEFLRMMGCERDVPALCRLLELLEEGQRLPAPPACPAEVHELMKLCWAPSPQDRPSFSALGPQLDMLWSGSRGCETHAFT

As to `Cc1cnc(Nc2ccc(N3CCOCC3)cc2)nc1Sc1ccc(NC(=O)/C=C\C(=O)O)cc1` [Compound 380, (Z)-4-(4-(5-methyl-2-(4-morpholinophenylao)pyrimidin-4-ylthio)phenylao)-4-oxobut-2-enoic acid], the pIC50 is greater than 7.00.
As for `Cc1cnc(Nc2ccc(N3CCOCC3)cc2)nc1Sc1ccc(N2C(=O)C=C(Br)C2=O)cc1` [Compound 382, 3-bromo-1-(4-(5-methyl-2-(4-morpholinophenylao)pyrimidin-4-ylthio)phenyl)-1H-pyrrole-2,5-dione], the pIC50 was greater than 7.00.
Consider `CCOC(=O)/C=C/C(=O)Nc1ccc(Sc2nc(Nc3ccc(N4CCOCC4)cc3)ncc2C)cc1` [Compound 385, (E)-ethyl 4-(4-(5-methyl-2-(4-morpholinophenylao)pyrimidin-4-ylthio)phenylao)-4-oxobut-2-enoate], for which the pIC50 was greater than 7.00.
Take `CNC(=O)/C=C\C(=O)Nc1ccc(Sc2nc(Nc3ccc(N4CCOCC4)cc3)ncc2C)cc1` [Compound 389, N1-methyl-N4-(4-(5-methyl-2-(4-morpholinophenylao)pyrimidin-4-ylthio)phenyl)maleamide]: the pIC50 was greater than 7.00.
